# Patent US7968526B2, “Antisense oligonucleotides directed to ribonucleotide reductase R2 and uses thereof in the treatment of cancer” (Lorus Therapeutics Inc., priority 2003, dated 2011)
# Entries after “also recorded” stand apart in the source; their conditions may differ.
# What was measured:
# Type in all cases: in vivo, human cells in mice
# [1] = test system: A2058 human melanoma cells; assay: A2058 melanoma xenograft in CD-1 nude mice, combination with DTIC (1.6); conditions: A2058 (melanoma), CD-1; SEQ ID NO:1 10 mg/kg i.v. every other day; DTIC 80 mg/kg i.v. days 6-10
# Protocol: After 52 days the mice were sacrificed and the tumours weighed. […] Mitoxantrone was administered intravenously once at the beginning of the treatments at a dose of 2 mg/kg (FIG. 4A) or once a week for four weeks at a reduced dose of 0.8 mg/kg (FIG. 4B). All treatments were stopped at day 50 (FIG. 4A) or 48 (FIG. 4B), respectively. […] Mitoxantrone was administered intravenously once at the beginning of the treatments at a dose of 2 mg/kg (FIG. 5A) or once a week for four weeks at a reduced dose of 0.8 mg/kg (FIG. 5B). All treatments were stopped at day 42 (FIG. 5A) or 38 (FIG. 5B), respectively. […] A2058 is a metastatic melanoma cell line. […] All treatments were stopped at day 24. […] Taxol was administered intravenously once a week at a dose of 10 mg/kg for three (FIG. 7A) or four weeks (FIG. 7C). Doxorubicin was administered intravenously once a week at a dose of 5 mg/kg for first three weeks (FIG. 7A) or for two weeks (FIG. 7C). All treatments were stopped at day 33 (FIG. 7A) or at day 26 (FIG. 7C), respectively. […] In FIG. 7C, antitumour activities were estimated by the inhibition of tumour volume, which was measured with calipers. Each point represents mean tumour volume calculated from 10 animals per experimental group. […] Taxol was administered intravenously once a week for first three weeks and intraperitoneally once a week for next two weeks at a dose of 10 mg/kg. Cisplatin was administered intravenously once a week for first three weeks and intraperitoneally once a week for next two weeks at a dose of 4 mg/kg. All treatments were stopped at day 40. Antitumour activities were estimated by the inhibition of tumour volume, which was measured with caliper. Each point represents mean tumour volume calculated from 9 animals per experimental group.
# [2] = test system: BxPC-3 human pancreatic carcinoma cells; assay: BxPC-3 gemcitabine resistant pancreatic carcinoma xenograft in CD-1 nude mice; conditions: Gemcitabine 100 mg/kg i.v. every three days
# Protocol: BxPC-3 is a gemcitabine resistant call line. […] Gemcitabine was administered intravenously every three days at a dose of 100 mg/kg. Antitumour activities were estimated by the inhibition of tumour volume, which was measured with caliper. Each point represents mean tumour volume calculated from 10 animals per experimental group. […] Hela S3 is a hydroxyurea resistant cell line. […] Hydroxyurea was administered intraperitoneally every day at a dose of 250 mg/kg for 10 days. Cisplatin was administered intravenously once a week for three weeks at a dose of 4 mg/kg. Antitumour activities were estimated by the inhibition of tumour volume, which was measured with caliper. Each point represents mean tumour volume calculated from 10 animals per experimental group. […] Cisplatin was administered intravenously once a week for three weeks at a dose of 4 mg/kg. Taxol was administered intravenously once a week for three weeks at a dose of 10 mg/kg. Antitumour activities were estimated by the inhibition of tumour volume, which was measured with caliper. Each point represents mean tumour volume calculated from 10 animals per experimental group. […] Taxol was administered i.p. once a week at a dose of 10 mg/kg. Antitumour activities were estimated by the inhibition of tumour volume (FIG. 12A), which was measured with calipers. Each point represents mean tumour volume calculated from 10 animals per experimental group. Animals were sacrificed and tumour weights taken at the end of the study (FIG. 12C). […] Cisplatin was administered intravenously once a week for four weeks at a dose of 4 mg/kg. Taxol was administered intravenously once a week for four weeks at a dose of 20 mg/kg. Antitumour activities were estimated by the inhibition of tumour volume, which was measured with caliper. Each point represents mean tumour volume calculated from 9-10 animals per experimental group. […] Cisplatin was administered intravenously once a week for four weeks at a dose of 4 mg/kg. Antitumour activities were estimated by the inhibition of tumour volume, which was measured with caliper. Each point represents mean tumour volume calculated from 10 animals per experimental group. At the end of the study the animals were sacrificed and tumours weighed. […] Taxol was administered i.p. once a week at a dose of 10 mg/kg. Anti-tumour activity was estimated by the inhibition of tumour volume, which was measured with caliper. Each point represents mean tumour volume calculated from 10 animals per experimental group. […] Antitumour activities were estimated by the inhibition of tumour volume, which was measured with caliper. Each point represents mean tumour volume calculated from 10 animals per experimental group. Tumour weights were measured after animals were sacrificed at the end of the treatment. […]
# [3] = test system: A498 human kidney cancer cells; assay: A498 kidney tumour xenograft in SCID mice, controls and chemotherapeutics (Example 7); conditions: oligonucleotides 10 mg/kg/2 days i.v., 5-FU 13 mg/kg/day×5, vinblastine 1 mg/kg/week, gemcitabine 100 mg/kg/week
# From the text: CD-1 athymic female nude mice, BALB/c nu/nu nude mice, SCID, and SCID beige mice were purchased from Charles River Laboratories (Montreal, Canada) and experiments were typically initiated when the mice were 6-7 weeks old. […] Each experimental group typically contained 10 mice. After the size of tumour reached a mean tumour volume of 50-100 mm^3, treatment was initiated. […] Anti-tumour activity was estimated by the measurement of tumour volume with a calliper at two-three day intervals. Tumour volume was calculated by a formula L×W×H/2, where L indicates length, W indicates width and H indicates height. Within 24 hours after the last treatment, the animals were sacrificed and tumour and body weights were measured. Results of statistical analyses of the data are presented as P values in the figure legends.
# Three additional treatment groups received: 5-FU (13 mg/kg/day×5), vinblastine (1 mg/kg/week) and gemcitabine (100 mg/kg/week). […] Caliper measurements at 1-week intervals were used to calculate tumour volumes. Each point in FIG. 28C represents mean tumour volume calculated from 10 animals per experimental group (with the exception of SEQ ID NO: 1 which was 8 animals). […] After 54 days the mice were sacrificed and the A498 tumours weighed. Each bar represents the mean tumour weight and standard error calculated for each treatment group.
# [4] = test system: PC-3 human prostatic cancer cells; assay: PC-3 prostatic tumour xenograft in SCID mice, combination with mitoxantrone (1.4)
# Protocol: (§1) After 52 days the mice were sacrificed and the tumours weighed. […] In both experiments, PC-3 human prostatic cancer cells (1×10^7 cells in 100 μl of PBS) were subcutaneously injected into the right flank of 6-7 weeks old male SCID mice. After the size of tumour reached an approximate volume of 50 mm^3, 14 days post tumour cell injection, SEQ ID NO: 1 was administered by bolus infusion into the tail vein every other day at 10 mg/kg 18 times (FIG. 4A) or 17 times (FIG. 4B), respectively. Control animals received saline alone for the same period. Antitumour effect of SEQ ID NO:1 was further compared to that of mitoxantrone (novantrone) alone or in combination. Mitoxantrone was administered intravenously once at the beginning of the treatments at a dose of 2 mg/kg (FIG. 4A) or once a week for four weeks at a reduced dose of 0.8 mg/kg (FIG. 4B). All treatments were stopped at day 50 (FIG. 4A) or 48 (FIG. 4B), respectively. A day after the last treatment, tumours were excised from the animals and their weights were measured. […] In both experiments, DU145 human prostatic cancer cells (1×10^7 cells in 100 μl of PBS) were subcutaneously injected into the right flank of 6-7 weeks old male SCID mice. After the size of tumour reached an approximate volume of 50 mm^3, 13 (FIG. 5A) or 11 (FIG. 5B) days post tumour cell injection, SEQ ID NO:1 was administered by bolus infusion into the tail vein every other day at 10 mg/kg 15 times (FIG. 5A) or 14 times (FIG. 5B), respectively. Control animals received saline alone for the same period. Antitumour effect of SEQ ID NO:1 was further compared to that of mitoxantrone (novantrone) alone or in combination. Mitoxantrone was administered intravenously once at the beginning of the treatments at a dose of 2 mg/kg (FIG. 5A) or once a week for four weeks at a reduced dose of 0.8 mg/kg (FIG. 5B). All treatments were stopped at day 42 (FIG. 5A) or 38 (FIG. 5B), respectively. A day after the last treatment, tumours were excised from the animals and their weights were measured.
# [5] = test system: DU145 human prostatic cancer cells; assay: DU145 prostatic tumour xenograft in SCID mice, combination with mitoxantrone (1.5); conditions: for Tumour weight as % of saline control: DU145 (prostatic), SCID, SEQ ID NO:1 10 mg/kg i.v. every other day, mitoxantrone i.v.
# Protocol: as §1
compound,measurement,setting,value
"CN(C)/N=N/c1[nH]cnc1C(N)=O [DTIC, dacarbazine, reference compound]",Tumour weight as % of saline control,[1],68%
"Nc1ccn([C@@H]2O[C@H](CO)[C@@H](O)C2(F)F)c(=O)n1 [Gemcitabine, reference compound]",Tumour weight as % of saline control,"[2]; BxPC-3 (pancreatic), Gemcitabine resistant, CD-1, SEQ ID NO:1 10 mg/kg i.v. every other day 17 times",83%
same,"Antitumour effect (tumour volume, FIG. 9)","[2]; BxPC-3 gemcitabine resistant, CD-1 nude mice, SEQ ID NO:1 10 mg/kg i.v. every other day",ineffective against Gemcitabine-resistant tumour
same,Effect on tumour growth (volume and weight),[3],"ineffective in stabilization of the tumours; also recorded: at best, a delay in the rate of tumour growth"
"O=C1c2c(O)ccc(O)c2C(=O)c2c(NCCNCCO)ccc(NCCNCCO)c21 [Novantrone, mitoxantrone]",Tumour weight as % of saline control,"[4]; PC-3 (prostatic), SCID, SEQ ID NO:1 10 mg/kg i.v. every other day, mitoxantrone (novantrone) i.v., table does not say which of two experiments",57%
same,"Antitumour effect (tumour weight, FIG. 4B)","[4]; PC-3, SCID mice, SEQ ID NO:1 10 mg/kg i.v. every other day 17 times, mitoxantrone 0.8 mg/kg i.v. once a week for four weeks",significant delay of tumour growth
same,Tumour weight as % of saline control,[5]; first of two printed values (two independent experiments),40%
same,Tumour weight as % of saline control,[5]; second of two printed values (two independent experiments),60%
same,"Antitumour effect (tumour weight, FIG. 5B)","[5]; DU145, SCID mice, SEQ ID NO:1 10 mg/kg i.v. every other day 14 times, mitoxantrone 0.8 mg/kg i.v. once a week for four weeks",significant delay of tumour growth
